Experimental data: US7846945B2, “Piperdine-based inhibitors of sodium glucose co-transporter 2 and methods of their use” (Lexicon Pharmaceuticals, Inc., priority 2007, dated 2010)

Target: T1, Human sodium/glucose co-transporter type 2 (SGLT2) (Homo sapiens, UniProt P31639)
T1 construct: HA; expressed in transfected cells
T1 sequence (P31639 1-672): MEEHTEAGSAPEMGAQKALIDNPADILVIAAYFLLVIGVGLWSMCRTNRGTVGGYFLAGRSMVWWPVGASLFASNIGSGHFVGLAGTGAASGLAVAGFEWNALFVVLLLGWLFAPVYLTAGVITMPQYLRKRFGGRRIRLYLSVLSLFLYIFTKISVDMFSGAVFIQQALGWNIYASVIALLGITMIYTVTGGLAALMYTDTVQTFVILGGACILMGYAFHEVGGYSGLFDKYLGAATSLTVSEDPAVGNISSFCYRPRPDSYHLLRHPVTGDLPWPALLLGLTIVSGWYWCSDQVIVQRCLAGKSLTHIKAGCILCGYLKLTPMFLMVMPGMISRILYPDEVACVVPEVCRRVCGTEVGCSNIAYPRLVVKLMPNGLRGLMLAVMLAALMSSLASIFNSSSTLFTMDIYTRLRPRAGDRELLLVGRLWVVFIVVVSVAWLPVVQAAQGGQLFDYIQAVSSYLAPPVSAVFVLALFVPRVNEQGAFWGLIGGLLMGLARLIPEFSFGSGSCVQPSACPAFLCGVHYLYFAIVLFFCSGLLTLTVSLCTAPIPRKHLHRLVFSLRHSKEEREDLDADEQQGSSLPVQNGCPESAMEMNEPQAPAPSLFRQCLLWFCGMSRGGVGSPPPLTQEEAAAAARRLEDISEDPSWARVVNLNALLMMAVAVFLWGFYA
Assay: In vitro human SGLT2 inhibition assay (14C-AMG uptake)
Type: cell-based
Conditions: HEK293 cells expressing human HA-SGLT2; potent = SGLT2 IC50 of less than about 500 nM; read-out: SGLT2 IC50 (potent SGLT2 inhibitor mark)
Experimental: HEK293 cells were transfected with the human HA-SGLT2-pIRESpuro2 vector and the bulk stable cell line was selected in presence of 0.5 μg/ml of puromycin. Human HA-SGLT2 cells were maintained in DMEM media containing 10% FBS, 1% GPS and 0.5 μg/ml of puromycin.
The HEK293 cells expressing the human HA-SGLT2 were seeded in 384 well plates (30,000 cells/well) in DMEM media containing 10% FBS, 1% GPS and 0.5 μg/ml of puromycin, then incubated overnight at 37 C, 5% CO2. Cells were then washed with uptake buffer (140 mM NaCl, 2 mM KCl, 1 mM CaCl2, 1 mM MgCl2, 10 mM HEPES, 5 mM Tris, 1 mg/ml bovine serum albumin (BSA), pH 7.3). Twenty microliters of uptake buffer with or without testing compounds were added to the cells. Then, 20 microliters of uptake buffer containing ^14C-AMG (100 nCi) were added to the cells. The cell plates were incubated at 37° C., 5% CO2 for 1-2 hours. After washing the cells with uptake buffer, scintillation fluid was added (40 microliters/well) and ^14C-AMG uptake was measured by counting radioactivity using a scintillation coulter (TopCoulter NXT; Packard Instruments).
The IC50 of a compound with regard to a given target is determined by fitting the relevant data, using the Levenburg Marquardt algorithm, to the equation: y=A+((B−A)/(1+((C/x)^D))) wherein A is the minimum y value; B is the maximum y value; C is the IC50; and D is the slope.

SMILES	IC50 [nM]
CCOc1ccc(Cc2cc(C3NC(CO)[C@@H](O)[C@H](O)[C@H]3O)ccc2Cl)cc1 (stereo partly drawn) [(3S,4R,5R)-2-[4-Chloro-3-(4-ethoxy-benzyl)-phenyl]-6-hydroxymethyl-piperidine-3,4,5-triol]	< 500
CCOc1ccc(Cc2cc([C@@H]3O[C@H](SC4CCOC4C)[C@@H](O)[C@H](O)[C@H]3O)ccc2Cl)cc1 (stereo partly drawn) [(2S,3R,4R,5S,6R)-2-[4-Chloro-3-(4-ethoxy-benzyl)-phenyl]-6-(2-methyl-tetrahydro-furan-3-ylsulfanyl)-tetrahydro-pyran-3,4,5-triol]	< 500
CCOc1ccc(Cc2cc([C@@H]3OC(OCC(=O)OC)[C@@H](O)[C@H](O)[C@H]3O)ccc2Cl)cc1 (stereo partly drawn) [{(3S,4R,5R,6S)-6-[4-Chloro-3-(4-ethoxy-benzyl)-phenyl]-3,4,5-trihydroxy-tetrahydro-pyran-2-yloxy}-acetic acid methyl ester]	< 500
CCOc1ccc(Cc2cc([C@@H]3O[C@H](SCC(N)=O)[C@@H](O)[C@H](O)[C@H]3O)ccc2Cl)cc1 [2-{(2R,3S,4R,5R,6S)-6-[4-Chloro-3-(4-ethoxy-benzyl)-phenyl]-3,4,5-trihydroxy-tetrahydro-pyran-2-ylsulfanyl}-acetamide]	< 500
CCOc1ccc(Cc2cc([C@@H]3O[C@H](SCC)[C@@H](O)[C@H](O)[C@H]3O)ccc2Cl)cc1 [(2S,3R,4R,5S,6R)-2-[4-Chloro-3-(4-ethoxy-benzyl)-phenyl]-6-ethylsulfanyl-tetrahydro-pyran-3,4,5-triol]	< 500
COC1O[C@@H](c2ccc(Cl)c(Cc3ccc(Oc4nccs4)cc3)c2)[C@H](O)[C@@H](O)[C@@H]1O (stereo partly drawn) [(2S,3R,4R,5S)-2-{4-Chloro-3-[4-(thiazol-2-yloxy)-benzyl]-phenyl}-6-methoxy-tetrahydro-pyran-3,4,5-triol]	< 500
CCOc1ccc(Cc2cc([C@@H]3O[C@H]([S+](C)[O-])[C@@H](O)[C@H](O)[C@H]3O)ccc2Cl)cc1 (stereo partly drawn) [(2S,3R,4R,5S,6R)-2-[4-Chloro-3-(4-ethoxy-benzyl)-phenyl]-6-methanesulfinyl-tetrahydro-pyran-3,4,5-triol]	< 500
CCOc1ccc(Cc2cc([C@@H]3OC(OCCN(C)C)[C@@H](O)[C@H](O)[C@H]3O)ccc2Cl)cc1 (stereo partly drawn) [(2S,3R,4R,5S)-2-[4-Chloro-3-(4-ethoxy-benzyl)-phenyl]-6-(2-dimethylamino-ethoxy)-tetrahydro-pyran-3,4,5-triol]	< 500
CCOc1ccc(Cc2cc([C@@H]3O[C@H](SCCC(C)C)[C@@H](O)[C@H](O)[C@H]3O)ccc2Cl)cc1 [(2S,3R,4R,5S,6R)-2-[4-Chloro-3-(4-ethoxy-benzyl)-phenyl]-6-(3-methyl-butylsulfanyl)-tetrahydro-pyran-3,4,5-triol]	< 500
CCOc1ccc(Cc2cc([C@H]3[C@H](O)[C@@H](O)[C@H](O)CN3CC(N)=O)ccc2Cl)cc1 [2-{(2S,3S,4S,5R)-2-[4-Chloro-3-(4-ethoxy-benzyl)-phenyl]-3,4,5-trihydroxy-piperidin-1-yl}-acetamide]	< 500
CCOc1ccc(Cc2cc([C@@H]3O[C@H](SC4CCCC4)[C@@H](O)[C@H](O)[C@H]3O)ccc2Cl)cc1 [(2S,3R,4R,5S,6R)-2-[4-Chloro-3-(4-ethoxy-benzyl)-phenyl]-6-cyclopentylsulfanyl-tetrahydro-pyran-3,4,5-triol]	< 500
CCOc1ccc(Cc2cc([C@@H]3OC(OCc4ccccc4)[C@@H](O)[C@H](O)[C@H]3O)ccc2Cl)cc1 (stereo partly drawn) [(3S,4R,5R,6S)-2-Benzyloxy-6-[4-chloro-3-(4-ethoxy-benzyl)-phenyl]-tetrahydro-pyran-3,4,5-triol]	< 500
CCOc1ccc(Cc2cc([C@@H]3O[C@H](SCCNC(C)=O)[C@@H](O)[C@H](O)[C@H]3O)ccc2Cl)cc1 [N-(2-{(2R,3S,4R,5R,6S)-6-[4-Chloro-3-(4-ethoxy-benzyl)-phenyl]-3,4,5-trihydroxy-tetrahydro-pyran-2-ylsulfanyl}-ethyl)-acetamide]	< 500

The next lines start with the values.

IC50 [nM]	SMILES
< 500	CCOc1ccc(Cc2cc([C@@H]3OC(OCC(O)CO)[C@@H](O)[C@H](O)[C@H]3O)ccc2Cl)cc1 (stereo partly drawn) [(2S,3R,4R,5S)-2-[4-Chloro-3-(4-ethoxy-benzyl)-phenyl]-6-(2,3-dihydroxy-propoxy)-tetrahydro-pyran-3,4,5-triol]
< 500	CCOc1ccc(Cc2cc([C@@H]3OC(OCCOC)[C@@H](O)[C@H](O)[C@H]3O)ccc2Cl)cc1 (stereo partly drawn) [(2S,3R,4R,5S)-2-[4-Chloro-3-(4-ethoxy-benzyl)-phenyl]-6-(2-methoxy-ethoxy)-tetrahydro-pyran-3,4,5-triol]
< 500	COCCOc1ccc(Cc2cc([C@@H]3OC(OC)[C@@H](O)[C@H](O)[C@H]3O)ccc2Cl)cc1 (stereo partly drawn) [(2S,3R,4R,5S)-2-{4-Chloro-3-[4-(2-methoxy-ethoxy)-benzyl]-phenyl}-6-methoxy-tetrahydro-pyran-3,4,5-triol]
< 500	COc1cc(Oc2ccc(Cc3cc([C@@H]4OC(OC)[C@@H](O)[C@H](O)[C@H]4O)ccc3Cl)cc2)nc(OC)n1 (stereo partly drawn) [(2S,3R,4R,5S)-2-{4-Chloro-3-[4-(2,6-dimethoxy-pyrimidin-4-yloxy)-benzyl]-phenyl}-6-methoxy-tetrahydro-pyran-3,4,5-triol]
< 500	C=CCNC(=O)N1C[C@@H](O)[C@H](O)[C@@H](O)[C@@H]1c1ccc(Cl)c(Cc2ccc(OCC)cc2)c1 [(2S,3S,4S,5R)-2-[4-Chloro-3-(4-ethoxy-benzyl)-phenyl]-3,4,5-trihydroxy-piperidine-1-carboxylic acid allyl amide]
< 500	COC1O[C@@H](c2ccc(Cl)c(Cc3ccc(Oc4cncnc4)cc3)c2)[C@H](O)[C@@H](O)[C@@H]1O (stereo partly drawn) [(2S,3R,4R,5S)-2-{4-Chloro-3-[4-(pyrimidin-5-yloxy)-benzyl]-phenyl}-6-methoxy-tetrahydro-pyran-3,4,5-triol]
< 500	CCOc1ccc(Cc2cc([C@@H]3O[C@H](OCCO)[C@@H](O)[C@H](O)[C@H]3O)ccc2Cl)cc1 [(2S,3R,4R,5S,6S)-2-[4-Chloro-3-(4-ethoxy-benzyl)-phenyl]-6-(2-hydroxy-ethoxy)-tetrahydro-pyran-3,4,5-triol]
< 500	CO[C@H]1O[C@@H](c2ccc(Cl)c(Cc3ccc(O[C@@H]4CCOC4)cc3)c2)[C@H](O)[C@@H](O)[C@@H]1O [(2S,3R,4R,5S,6S)-2-(4-Chloro-3-{4-[(R)-(tetrahydro-furan-3-yl)oxy]-benzyl}-phenyl)-6-methoxy-tetrahydro-pyran-3,4,5-triol]
< 500	CCOc1ccc(Cc2cc([C@@H]3OC(OCCCO)[C@@H](O)[C@H](O)[C@H]3O)ccc2Cl)cc1 (stereo partly drawn) [(2S,3R,4R,5S)-2-[4-Chloro-3-(4-ethoxy-benzyl)-phenyl]-6-(3-hydroxy-propoxy)-tetrahydro-pyran-3,4,5-triol]
< 500	CCOc1ccc(Cc2cc([C@H]3[C@H](O)[C@@H](O)[C@H](O)CN3C(C)=O)ccc2Cl)cc1 [1-{(2S,3S,4S,5R)-2-[4-Chloro-3-(4-ethoxy-benzyl)-phenyl]-3,4,5-trihydroxy-piperidin-1-yl}-ethanone]
